These results are taken from paper PMC10333884, “Large‐scale phosphomimetic screening identifies phospho‐modulated motif‐based protein interactions” (Molecular Systems Biology, 2023).

For assay [1], the target named is T1, SNX27 PDZ (Homo sapiens, UniProt Q96L92).
T1 construct: SNX27_PDZ__Q96L92_40_141; made in house; host or cells: Escherichia coli BL21-Gold(DE3)
Kind of assay: Phosphomimetic ProP-PD selection, SNX27 PDZ. The conditions noted are these: phosphomimetic enrichment score of the wild-type/phosphomimetic (E) pair at the phosphosite, PM_HD2 phage selection; positive = phosphomimetic enhances binding; P-value in brackets not taken. On the procedure:
(§1) Selections using the PM_HD2 phage library were performed as described previously with minor modification to the original protocol. The corresponding tag protein (either GST or MBP) was first used during negative selections. Selections were run for 4 days. • Bait and tag proteins (10–15 μg in 100 μl PBS) were immobilised in 96‐well MaxiSorb plate (NUNC) o.n. at 4°C. • Escherichia coli OmniMax bacteria were grown in 2YT medium supplemented with tetracycline (100 μg/ml) at 37°C and 200 rpm. • Plates with immobilised bait/tag proteins were blocked with 0.5% BSA in PBS for 1 h at 4°C. • Phage library (10 μl/well) was prepared by diluting 10× with PBS and adding one‐fourth of the volume of PEG/NaCl. For phage precipitation, prepared library was incubated for 10 min on ice followed by centrifugation for 10 min at 10,000 × g at 4°C. […]
(§2) Based on the results from phage pool ELISAs, samples from selection Day 3 and 4 were selected for NGS, as described previously (Benz et al, [2022]). • Peptide coding regions were amplified and dual‐barcoded by PCR. […] From the columns, samples were eluted with 30 μl TE (10 mM Tris–HCl, 1 mM EDTA. pH 7.5) buffer and quantified with Quant‐iT PicoGreen dsDNA Assay Kit. • Samples were sequenced on MiSeq (MSC 2.5.0.5/RTA 1.18.54) with a 151 nt (Read1) setup using “Version3” chemistry. […]

Assay [2] deals with T1, SNX27 PDZ. Kind of assay: FP displacement assay, SNX27 PDZ (MBP-tagged). In kind it is binding. Particulars: for Kd: MBP-tagged domain, probe FITC-SYT16 5 nM, 50 mM sodium phosphate pH 7.4, room temperature, at least three technical replicates, read-out: KD values ± SEM. On the procedure: For FP, ITC and crystallisation, the tag was removed with the appropriate protease either on beads (0.1 mg/ml thrombin (Cytiva) in PBS, 1 mM dithiothreitol (DTT)) or by dialysis in cleavage buffer (Human Rhinovirus (HRV) 3C protease: 50 mM Tris–HCl pH 7.4, 150 mM NaCl, 1 mM β‐mercaptoethanol), both procedures were overnight. In case of HRV protease cleavage, the tag was separated from the target protein domain by reverse ion metal affinity chromatography using Ni^2+ beads for purification, whereas thrombin was removed using a benzamidine column (Cytiva). Affinity measurements for SNX27 PDZ were performed on the MBP‐tagged construct, as well as PIN1 WW domain on the GST‐tagged construct. For FP and ITC, proteins were dialysed in 50 mM sodium phosphate buffer pH 7.4, 1 mM DTT. For crystallisation of the NTD of clathrin, the protein was further purified by a S200 Sepharose column (Cytiva) using 20 mM Tris–HCl pH 7.4, 150 mM NaCl and 1 mM DTT.
(§3) FP experiments were performed as described previously (Kliche et al, [2021]). Shortly, in order to monitor the binding event, FITC‐labelled peptides were used (excitation 495 nm, emission: 535 nm) and the FP signal was recorded in mP on a SpectraMax iD5 Multi‐Mode Microplate Reader (Molecular Devices) by measuring the emitted light in two angels. The measurements were performed at room temperature and prepared in nonbinding black half area 96‐well microplates (Corning®; 50 μl/well). For measuring direct binding, that is saturation curves, a 1:1 dilution series of protein domain (25 μl/well) was generated in 50 mM sodium phosphate buffer pH 7.4 and the measurement performed with 5 nM FITC‐labelled peptide (25 μl/well). The buffer‐corrected values were subsequently plotted with PRISM and fitted to the quadratic equation (Gianni et al, [2005]).
(§4) The 1:1 dilution series in this experiment was performed with the unlabelled peptide in 50 mM sodium phosphate buffer pH 7.4, so that each well‐contained unlabelled peptide (25 μl) at a certain concentration and pre‐formed complex (25 μl). The KD values of this indirectly monitored binding event were calculated as described previously (Nikolovska‐Coleska et al, [2004]). All measurements were at least in technical triplicates as well as biological duplicates when indicated. An amplitude shift between repeat measurements in the displacement experiments was occasionally observed due to variations in the protein preparations. If that was the case, the “active” protein concentration was back‐calculated according to the quadratic equation from the saturation curves performed in parallel. By comparing the active protein concentrations in the complex between different protein preparations, the amplitude was normalised.

Assay [3] has as its target T2, PDCD6IP Alix V domain (Homo sapiens, UniProt Q8WUM4).
T2 construct: GST (cleaved yes); made in house; host or cells: Escherichia coli BL21-Gold(DE3)
T2 sequence (Q8WUM4 360-702): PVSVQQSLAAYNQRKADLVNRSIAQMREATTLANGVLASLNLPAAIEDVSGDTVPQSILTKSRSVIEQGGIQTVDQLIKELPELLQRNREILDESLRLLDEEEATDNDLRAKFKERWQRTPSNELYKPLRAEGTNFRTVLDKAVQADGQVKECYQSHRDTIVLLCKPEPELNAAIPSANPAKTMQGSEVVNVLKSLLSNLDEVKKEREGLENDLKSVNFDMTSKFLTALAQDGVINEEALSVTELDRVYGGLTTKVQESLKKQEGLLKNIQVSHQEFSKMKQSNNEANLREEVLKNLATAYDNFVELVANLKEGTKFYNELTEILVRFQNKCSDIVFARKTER
Kind of assay: FP displacement assay, PDCD6IP Alix V domain. In kind it is binding. Particulars: probe FITC-HIV1_Gag 5 nM, 50 mM sodium phosphate pH 7.4, room temperature, at least three technical replicates, read-out: KD values ± SEM. On the procedure: as §3, §4

Assay [4] deals with T2, PDCD6IP Alix V domain. The assay is described as follows: Phosphomimetic ProP-PD selection, PDCD6IP Alix V domain. The conditions noted are these: phosphomimetic enrichment score of the wild-type/phosphomimetic (E) pair at the phosphosite, PM_HD2 phage selection; positive = phosphomimetic enhances binding; P-value in brackets not taken. On the procedure:
as §1, §2

In assay [5] the target is T3, RANBP2 RanBD4 (Homo sapiens, UniProt P49792).
T3 construct: GST (cleaved yes); made in house; host or cells: Escherichia coli BL21-Gold(DE3)
T3 sequence (P49792 2924-3050): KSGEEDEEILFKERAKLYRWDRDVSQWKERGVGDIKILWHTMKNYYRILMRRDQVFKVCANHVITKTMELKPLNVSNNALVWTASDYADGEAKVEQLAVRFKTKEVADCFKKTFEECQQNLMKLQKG
The assay is described as follows: FP displacement assay, RANBP2 RanBD4. It is filed as binding. The conditions noted are these: probe FITC-C7orf25 5 nM, 50 mM sodium phosphate pH 7.4, room temperature, at least three technical replicates, read-out: KD values ± SEM. On the procedure:
as §3, §4

The target in assay [6] is T3, RANBP2 RanBD4. Kind of assay: Phosphomimetic ProP-PD selection, RANBP2 RanBD4. The conditions noted are these: phosphomimetic enrichment score of the wild-type/phosphomimetic (E) pair at the phosphosite, PM_HD2 phage selection; positive = phosphomimetic enhances binding; P-value in brackets not taken. On the procedure:
as §1, §2

Broadly, the IC50 is the concentration needed to halve the response being measured. A word on the Kd: it is the equilibrium constant for the complex coming apart.

Residues, ends and D or L forms follow the SMILES beside them.

Regarding `CSCC[C@H](NC(=O)CNC(C)=O)C(=O)N[C@H](C(=O)N[C@@H](CO)C(=O)N[C@@H](CCC(=O)O)C(=O)N[C@H](C(=O)N[C@@H](CO)C(=O)N[C@@H](Cc1ccccc1)C(=O)N[C@@H](CC(N)=O)C(=O)NCC(=O)NCC(=O)N[C@@H](Cc1ccc(O)cc1)C(N)=O)[C@@H](C)O)C(C)C` [DAXX606–616 E] (Ac-GMVSETSFNGGY-NH2), at SNX27 PDZ [1], the PES was 6 (0.00063). In addition, the IC50 on SNX27 PDZ [2] (Fig 4B, SNX27 PDZ, technical triplicates, read-out: IC50 values of displacement curves, with SEM) stood at 117 ± 25 µM. The Kd at SNX27 PDZ [2] worked out at 23 ± 4 µM.

With `CC[C@H](C)[C@H](NC(=O)[C@H](CCCCN)NC(=O)[C@H](CC(C)C)NC(=O)[C@@H]1CCCN1C(=O)[C@H](CCC(=O)O)NC(=O)[C@@H](NC(=O)[C@H](CCC(N)=O)NC(=O)[C@@H]1CCCN1C(=O)[C@H](Cc1ccc(O)cc1)NC(=O)[C@H](CC(C)C)NC(=O)[C@@H]1CCCN1C(=O)[C@H](CCCNC(=N)N)NC(=O)[C@H](CC(C)C)NC(=O)[C@@H]1CCCN1C(=O)[C@H](CO)NC(=O)[C@H](C)NC(C)=O)[C@@H](C)CC)C(N)=O` [FOXK1_212–227 E] (Ac-ASPLRPLYPQIEPLKI-NH2), at PDCD6IP Alix V domain [3], the Kd is 13 ± 1 µM. The PES on PDCD6IP Alix V domain [4] is recorded as 2.9 (0.04).

As for `CC(=O)N[C@@H](Cc1c[nH]cn1)C(=O)N[C@@H](CC(C)C)C(=O)N1CCC[C@H]1C(=O)N[C@@H](CC(C)C)C(=O)N[C@@H](CC(N)=O)C(=O)N[C@@H](CCC(=O)O)C(=O)N1CCC[C@H]1C(=O)N[C@@H](CC(C)C)C(=O)N1CCC[C@H]1C(=O)NCC(=O)N[C@@H](CO)C(=O)N[C@@H](CCC(=O)O)C(=O)N[C@@H](CC(C)C)C(=O)N[C@H](C(=O)N[C@@H](CCCCN)C(=O)N[C@@H](Cc1ccc(O)cc1)C(N)=O)[C@@H](C)O` [INTS6_145–159 E] (Ac-HLPLNEPLPGSELTKY-NH2), at RANBP2 RanBD4 [5], the Kd worked out at 1080 µM. For the same compound, the PES at RANBP2 RanBD4 [6] is −4 (0.0044).

As for `CC(=O)N[C@H](C(=O)N[C@@H](CCC(=O)O)C(=O)N1CCC[C@H]1C(=O)N[C@@H](CC(C)C)C(=O)N[C@H](C(=O)N[C@@H](CO)C(=O)N[C@@H](CC(C)C)C(=O)N[C@@H](Cc1ccc(O)cc1)C(=O)N1CCC[C@H]1C(=O)N[C@@H](C)C(=O)N[C@@H](CC(C)C)C(=O)N[C@@H](CCC(=O)O)C(=O)N[C@@H](C)C(=O)N[C@@H](CCCNC(=N)N)C(=O)N[C@@H](C)C(=O)N[C@@H](CC(C)C)C(N)=O)C(C)C)[C@@H](C)O` [OTUD5_507–522 E] (Ac-TEPLVSLYPALEARAL-NH2), the Kd at PDCD6IP Alix V domain [3] was 88 ± 7 µM. Besides, on PDCD6IP Alix V domain [4], the PES is 0.66 (0.34).

For the compound `CC(=O)N[C@@H](CCCCN)C(=O)N[C@@H](Cc1ccc(O)cc1)C(=O)N[C@@H](CO)C(=O)N[C@@H](CC(=O)O)C(=O)N[C@@H](CC(=O)O)C(=O)N[C@H](C(=O)N1CCC[C@H]1C(=O)N[C@@H](CC(C)C)C(=O)N1CCC[C@H]1C(=O)N[C@@H](CCC(=O)O)C(=O)N1CCC[C@H]1C(=O)N[C@@H](CO)C(=O)N[C@@H](Cc1ccc(O)cc1)C(=O)N[C@@H](CCCCN)C(=O)N[C@@H](Cc1ccc(O)cc1)C(=O)N[C@@H](CC(N)=O)C(N)=O)[C@@H](C)O` [DHX38_260–275 E] (Ac-KYSDDTPLPEPSYKYN-NH2), the dissociation constant Kd on RANBP2 RanBD4 [5] is 470 ± 35 µM. Also, at RANBP2 RanBD4 [6], the PES is 3 (0.04).

With `CC(=O)N[C@@H](CC(N)=O)C(=O)N[C@@H](CC(C)C)C(=O)N[C@@H](CC(C)C)C(=O)N[C@@H](CC(C)C)C(=O)N[C@@H](CCC(=O)O)C(=O)N[C@@H](CCCNC(=N)N)C(=O)N[C@@H](CC(=O)O)C(=O)N[C@H](C(=O)N[C@@H](CCC(=O)O)C(=O)N[C@@H](Cc1ccccc1)C(=O)N[C@H](C(=O)N[C@H](C(=O)N[C@@H](C)C(=O)N1CCC[C@H]1C(=O)N[C@@H](CC(=O)O)C(=O)N[C@@H](Cc1ccc(O)cc1)C(N)=O)C(C)C)[C@@H](C)O)[C@@H](C)O` [CDC25C30–44 E] (Ac-NLLLERDTEFTVAPDY-NH2), the PES at SNX27 PDZ [1] is −6 (0.00063). The Kd on SNX27 PDZ [2] was found to be 680 ± 40 µM.
